Measured values as given in patent US5017577A, “Methods for treating viral infection” (Burroughs Wellcome Co., priority 1989, dated 1991).

These compounds were tested against T1, adenosine (purine) receptors (Cavia porcellus, UniProt P47745) (assay: Guinea pig ileum twitch test: purine receptor antagonism against 2-chloroadenosine (Schild regression)). Conditions: agonist 2-chloroadenosine.
T1 construct: Ilea were removed from sacrificed guinea pigs; from tissue; host or cells: guinea pig ileum
T1 sequence (P47745 1-326): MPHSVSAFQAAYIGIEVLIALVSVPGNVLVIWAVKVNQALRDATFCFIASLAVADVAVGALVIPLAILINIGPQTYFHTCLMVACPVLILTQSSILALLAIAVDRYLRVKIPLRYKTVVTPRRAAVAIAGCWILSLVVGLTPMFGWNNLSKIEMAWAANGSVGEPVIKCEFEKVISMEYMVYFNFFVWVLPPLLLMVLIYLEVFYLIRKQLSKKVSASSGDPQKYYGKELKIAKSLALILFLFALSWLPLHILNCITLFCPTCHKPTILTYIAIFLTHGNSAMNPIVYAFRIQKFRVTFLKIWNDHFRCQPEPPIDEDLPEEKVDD
Method: Accordingly, a representative number of compounds of the present invention were tested for their ability to antagonise the purine receptors using the guinea pig ileum test system.
Ilea were removed from sacrificed guinea pigs and placed in organ baths containing oxygenated Krebs-Henseleit buffer. After equilibration, the ilea were stimulated to contract (twitch contraction) using an electrical field-stimulus of 0.1 Hz, 0.05 ms duration and maximal voltage. Under these conditions, the twitch contraction results from the release of acetylcholine.
Concentration response curves to the purine agonist, 2-chloroadenosine, were determined first in the absence and then in the presnce of multiple concentrations of the compounds of the invention. One concentration of each compound was used per tissue. Quantification of purine receptor antagonism was accomplished using the Schild regression technique, i.e. plots of log (dose-ratio-l) vs log compound concentration, and the pA2 determined by regression of the data points to the x-intercept, where log (dose-ratio-l) is zero.
For `CC(C)Cn1c(=O)c2nc(-c3ccc(/C=C/C(=O)O)cc3)[nH]c2n(CC(C)C)c1=O` [Example 19, (E)-4-(1,2,3,6-tetrahydro-1,3-diisobutyl-2,6-dioxo-9H-purin-8-yl) cinnamic acid], the “pA2 guinea pig ileum (slope): slope of Schild regression” value (“pA2 guinea pig ileum (slope): slope” for short) was 1.0.
`CCCn1c(=O)c2nc(-c3ccc(/C=C/C(=O)O)cc3)[nH]c2n(CCC)c1=O` [Example 6, (E)-4-(1,2,3,6-tetrahydro-2,6-dioxo-1,3-dipropyl-9H-purin-8-yl)cinnamic acid] was tested, and the “pA2 guinea pig ileum (slope): slope” value was 0.9.
In the case of `Cn1c(=O)c2nc(-c3ccc(/C=C/C(=O)O)cc3)[nH]c2n(Cc2ccccc2)c1=O` [Example 18, (E)-4-(3-benzyl-1,2,3,6-tetrahydro-1-methyl-2,6-dioxo-9H-purin-8-yl) cinnamic acid], the “pA2 guinea pig ileum (slope): slope” value is reported as 0.9.
For `CCCCn1c(=O)c2nc(-c3ccc(/C=C/C(=O)O)cc3)[nH]c2n(CCCC)c1=O` [Example 14, (E)-4-(1,3-dibutyl-1,2,3,6-tetrahydro-2,6-dioxo-9H-purin-8-yl)cinnamic acid], the “pA2 guinea pig ileum (slope): slope” value was 1.0.
For `CCCn1c(=O)n(C)c(=O)c2nc(-c3ccc(/C=C/C(=O)O)cc3)[nH]c21` [Example 11, (E)-4-(1,2,3,6-tetrahydro-1-methyl-2,6-dioxo-3-propyl-9H-purin-8-yl)cinnamic acid], the “pA2 guinea pig ileum (slope): slope” value was 1.0.
For `O=C(O)/C=C/c1ccc(-c2nc3c(=O)n(Cc4ccccc4)c(=O)n(Cc4ccccc4)c3[nH]2)cc1` [Example 15, (E)-4-(1,3-dibenzyl-1,2,3,6-tetrahydro-2,6-dioxo-9H-purin-8 yl) cinnamic acid], the “pA2 guinea pig ileum (slope): slope” value was 0.9.

These compounds were tested on AIDV (assay: Anti-retroviral activity against AIDV). Conditions: in words.
Design: species or system AIDV (HTLV III)
In the case of `O=C(O)/C=C/c1ccc(-c2nc3c(=O)n(Cc4ccccc4)c(=O)n(Cc4ccccc4)c3[nH]2)cc1` [Example 15, (E)-4-(1,3-dibenzyl-1,2,3,6-tetrahydro-2,6-dioxo-9H-purin-8 yl) cinnamic acid], the “anti-retroviral activity, especially against AIDV” value is reported as “especially potent activity against AIDV”.
